{"source": "patent US20060193845A1", "about": "“Combination therapy for controlled carbohydrate digestion” (ELIXIR PHARMACEUTICALS, INC., priority 2004, published 2006)", "origin": "cited, not measured here"}
{"smiles": "OCCN1C[C@H](O)[C@@H](O)[C@H](O)[C@H]1CO", "note": "[Miglitol, 3,4,5-piperidinetriol, 1-(2-hydroxyethyl)-2-(hydroxymethyl)-, [2R-(2α,3β,4α,5β)]]", "values": [{"measurement": "solubility in water", "result": "soluble"}]}
